Laboratory results taken from patent publication US20220062245A1, “AGENT FOR IMPROVING INFERTILITY, RECURRENT MISCARRIAGE, AND STATE OF PREGNANCY” (priority 2018, published 2022).
Entries after “also recorded” stand apart in the source; their conditions may differ.

Tests used:
[1] = system: RPL (recurrent pregnancy loss) patient; conditions: cited from earlier work; for Outcome of earlier treatment: low-dose aspirin, heparin, prednisolone 5 mg/day, large-quantity γ-globulin 1 g/kg for 3 days, given in this order
[2] = system: patient suffering from a blood type incompatible pregnancy with negative maternal Rho (D) and positive fetal Rho (D); assay: Anti-D antibody titer by indirect Coombs test, Example 1 patient; type: in vivo, human; conditions: for Anti-D antibody titer: maternal blood, tacrolimus 4 mg/day oral
Procedure: Measurement of Anti-D Antibody Titer
The measurement is carried out by the indirect Coombs test. The indirect Coombs test is a test in which an anti-immunoglobulin antibody is added to a mixture of the blood serum of a patient and the blood of a healthy person to examine whether a hemagglutination reaction occurs (any irregular antibody present in the blood serum is detected) (for the Coombs test, see Nissan Women's Journal Vol. 59, No. 10, N-617-N-623).
(§1) The patient is a person having blood type A. The patient suffering from a blood type incompatible pregnancy with negative maternal Rho (D) and positive fetal Rho (D) was subjected to the following treatments. That is, at the time of the first pregnancy, anti-D immunoglobulin was not administered during pregnancy, sensitization was effected before delivery, and the anti-D antibody titer at the time of delivery was 8-fold. In week 39, they gave birth by emergency cesarean section due to placental abruption of the upper placenta.
(§2) The anti-D antibody titer obtained immediately after the establishment of pregnancy was 4-fold; however, the titer reached 16-fold in week 24 and reached 32-fold in week 26 (FIG. 6, upper part). After that, migration of fetal antigens to the mother's body via the placenta was assumed to further increase, and preparation of plasmapheresis and fetal blood transfusion was initiated in preparation for a rapid increase in the antibody titer.
(§3) Furthermore, the blood flow velocity in the middle cerebral artery and the estimated body weight of the fetus were measured by fetal ultrasonography.

[3] = system: patient suffering from a blood type incompatible pregnancy with negative maternal Rho (D) and positive fetal Rho (D); assay: Pregnancy course and fetal/neonatal outcome in blood type incompatible pregnancy treated with tacrolimus (Example 1); type: in vivo, human
Description: as §1
Two years later, […] hoped to have a second child but suffered from infecundity and was treated for sterility by in vitro fertilization; however, since the treatment was unsuccessful after five embryo transplantations, a close examination of the immune system was conducted. At that time, a marked increase (24.9) in the Th1/Th2 (Th1 32.4, Th2 1.3) ratio was recognized, the illness was judged as infecundity considered to be caused by an abnormality in the immune system, and a tacrolimus treatment was selected.
as §2, §3

[4] = Concentration of tacrolimus in the cord blood by chemiluminescence immunoassay (ECLIA); type: in vivo, human; conditions: at delivery, mother on 5 mg/day oral
[5] = system: patient having a medical history of pregnancy-induced hypertensive nephropathy and HELLP syndrome; assay: Prevention or delay of onset of pregnancy-induced hypertension syndrome, HELLP syndrome and eclampsia (Example 4, Table 1); type: in vivo, human
Description: A patient is a person having a medical history of pregnancy-induced hypertensive nephropathy and HELLP syndrome. […] After the delivery, pulmonary edema, disseminated intravascular coagulation (DIC), and intraperitoneal bleeding, all of which are severe complications, were recognized, and the patient received treatments such as management using an artificial respirator, supplement of albumin, and blood component transfusion.
This time, in the hematologic examination findings before pregnancy, there were no abnormalities in all of the liver function, kidney function, and coagulation function, and abnormal findings were not observed in the examination items involved in infertility such as antiphospholipid antibody syndrome (anti-CL-IgG antibody, anti-CL-IgM antibody, anti-PS/PT antibody, anti-CL-β2GP1 antibody, LAC, anti-PE-IgG antibody, and anti-PE-IgM antibody), autoimmune diseases (anti-DNA antibody and antinuclear antibody), and coagulation dysfunction.
The circumstances of the first pregnancy and the pregnancy of this time are described in Table 1.
The ratio of Th1 (CD4g^+IFN-g^+)/Th2(CD4^+IL-4^+) in CD4-positive cells is 15.2/2.1 (normal value: less than 10.3), and clear immunological abnormalities were also not observed before pregnancy [Reference Literature 12b]; however, it was assumed that after implantation of a fertilized ovum, immunity of the mother's body would be activated, and immune abnormality between the mother's body and the fetus would suppress placental construction and functions thereof, causing fetal growth restriction and hypertension during pregnancy. Considering this, the patient was treated with 1 mg/day of tacrolimus from week 4 of pregnancy, for the purpose of controlling the immunity between the mother's body and the fetus after confirmation of pregnancy.
In this case, monotherapy was carried out with 1 mg/day of tacrolimus from the early stage of pregnancy, and combined treatment of low dose aspirin (LDA) intended for HDP prevention by bloodstream improvement was not carried out [Reference Literature 13b]. Regarding the pregnancy progress, there was no problem in the second trimester of pregnancy, where the patient developed HELLP syndrome in the previous pregnancy, and pregnancy progressed smoothly to the third trimester of pregnancy; however, the patient rapidly acquired HELLP syndrome similarly to the previous pregnancy, after week 33 of pregnancy.

[6] = system: Th1 and Th2 cells among CD4-positive cells; assay: Analysis of Th1 cells and Th2 cells in patient blood by flow cytometry; type: in vivo, human
Procedure: Analysis of Th1 Cells and Th2 Cells
For the purpose of evaluating the baseline value of the Th1/Th2 cell ratio, a total of 10 ml of venous blood was collected. Th1 cells and Th2 cells were determined by detecting the production of intracellular interferon (IFN)-γ and IL-4.
Specific staining of lymphocytes was performed by incubating whole blood together with anti-CD4-PC5 or anti-CD8-PC5-conjugated monoclonal antibody (mAbs) (Beckman Coulter, Inc., Fullerton, Calif., USA). Red blood cells (RBCs) were removed by hemolysis (using FACS Lysing solution; Becton, Dickinson and Company, BD 134 Biosciences, Franklin Lake, N.J., USA), and lymphocytes were analyzed using flow cytometry (FACSCalibur; Becton, Dickinson and Company). Activated whole blood samples were surface-stained using anti-CD4-PC5-conjugate mAbs, and then RBC hemolysis and specific intracellular staining using Fast Immune (trademark) IFN-γ-FITC/IL-4-PE (Becton, Dickinson and Company) were carried out in sequence according to the manufacturer's instructions for use. Th1 cells were defined as CD4^+ lymphocytes accompanied by intracellular IFN-γ but not by intracellular IL-4. Th2 cells were detected as CD4^+ lymphocytes accompanied by intracellular IL-4 but not by intracellular IFN-γ. The ratio of intracellular IFN-γ-positive Th cells with respect to intracellular IL-4-positive Th cells was expressed as the Th1/Th2 cell ratio.

NK cells = assay: NK cell activity during pregnancy (Example 4); type: in vivo, human; conditions: Example 4 patient during pregnancy, tacrolimus 1 mg/day; normal value 18% to 40%; FIG. 8
[7] = system: patients with five consecutive incidences of RIF (repeated implantation failure); conditions: treated from two days before embryo transplantation to day of pregnancy test; daily dose by Th1/Th2 cell ratio; 16/25 versus 0% (0/17) untreated; cited from earlier work
[8] = pregnancy of this time, tacrolimus 1 mg/day, after parturition
[9] = pregnancy of this time, tacrolimus 1 mg/day, before parturition
[10] = tacrolimus 1 mg/day, after parturition
[11] = tacrolimus 1 mg/day, before parturition

Compound: CC(=O)Oc1ccccc1C(=O)O [aspirin]
- Outcome of earlier treatment [1]: not successful

Compound: C[C@]12C=CC(=O)C=C1CC[C@@H]1[C@@H]2[C@@H](O)C[C@@]2(C)[C@H]1CC[C@]2(O)C(=O)CO [prednisolone]
- Outcome of earlier treatment [1]: not successful

Compound: C=CCC1/C=C(\C)CC(C)CC(OC)C2OC(O)(C(=O)C(=O)N3CCCCC3C(=O)OC(/C(C)=C/C3CCC(O)C(OC)C3)C(C)C(O)CC1=O)C(C)CC2OC (stereo not drawn) [tacrolimus, 17-Allyl-1,14-dihydroxy-12-[2-(4-hydroxy-3-methoxycyclohexyl)-1-methylvinyl]-23,25-dimethoxy-13,19,21,27-tetramethyl-11,28-dioxa-4-azatricyclo[22.3.1.04,9]octacos-18-ene-2,3,10,16-tetraone]
- Anti-D antibody titer in the cord blood ([2]; cord blood at delivery): double
- Anti-D antibody titer ([2]; immediately after the establishment of pregnancy): 4 fold
- Anti-D antibody titer ([2]; week 24 of pregnancy): 16 fold
- Anti-D antibody titer ([2]; week 26 of pregnancy): 32 fold
- Body weight of child at birth ([3]; Example 1, tacrolimus 4 then 5 mg/day): 2834 g
- Body weight of the fetus in the weeks of pregnancy ([3]; FIG. 7, estimated by fetal ultrasonography): smoothly increased
- Malformations of the child ([3]; child exposed in utero to tacrolimus 4 to 5 mg/day): no external malformations or visceral malformations
- Fetal anemia (blood flow velocity in the middle cerebral artery) ([3]; fetal ultrasonography during pregnancy, tacrolimus 4 then 5 mg/day): corresponded to the number of weeks; also recorded: without observing any fetal anemia; also recorded: fetal anemia was not developed during the entire course of pregnancy
- Establishment of pregnancy by embryo transplantation ([3]; person, infecundity after five unsuccessful embryo transplantations, Th1/Th2 24.9, tacrolimus 4 mg/day oral): Pregnancy was established by a single embryo transplantation
- Pregnancy progress in RhD incompatible pregnancy ([3]; without using plasma exchange, data not shown): satisfactory pregnancy progress was obtained
- Concentration of tacrolimus in the cord blood [4]: lower than or equal to the detection limit value
- Information on fetus: Fetal growth ([5]; pregnancy of this time, tacrolimus 1 mg/day from week 4): −1.9 SD
- Information on fetus: Body weight ([5]; pregnancy of this time, tacrolimus 1 mg/day from week 4, at birth): 1490 g
- Complications after parturition [5, 8]: None
- Symptoms: Edema [5, 8]: Negligible
- Symptoms: Hypertension [5, 8]: Temporary
- Proteinuria initiated (weeks of pregnancy) [5, 9]: 33 weeks of pregnancy
- Symptoms: Edema [5, 9]: Negligible
- Delay of onset of HELLP syndrome compared to the previous pregnancy ([5]; single administration of tacrolimus 1 mg/day, previous pregnancy untreated): about 13 weeks
- Proteinuria, edema, and hypertension during pregnancy progress ([5]; tacrolimus 1 mg/day monotherapy from week 4 of pregnancy): not observed until week 32 of pregnancy
- Blood examination: ALT [5, 10]: 833 U/L
- Blood examination: AST [5, 10]: 898 U/L
- Blood examination: Cr [5, 10]: 0.59 mg/dL
- Blood examination: Hb [5, 10]: 10.5 g/dL
- Blood examination: LDH [5, 10]: 1995 U/L
- Blood examination: Plt [5, 10]: 2.2 10^4/µL
- Blood examination: WBC [5, 10]: 8220 µL⁻¹
- Blood examination: ALT [5, 11]: 71 U/L
- Blood examination: AST [5, 11]: 65 U/L
- Blood examination: Cr [5, 11]: 1 mg/dL
- Blood examination: Hb [5, 11]: 11 g/dL
- Blood examination: LDH [5, 11]: 316 U/L
- Blood examination: Plt [5, 11]: 10 10^4/µL
- Blood examination: WBC [5, 11]: 8280 µL⁻¹
- Th1 ([6]; Example 1 patient, week 28 of pregnancy, on tacrolimus 4 mg/day): tendency of increase again
- Ratio (proportions) of Th1 and Th2 cells among CD4-positive cells ([6]; Example 4 patient during pregnancy, tacrolimus 1 mg/day, FIG. 8): continuously decreased
- NK cell activity (NK cells): decreased in the second trimester of pregnancy and then conspicuously increased in the examination in week 32 of pregnancy; also recorded: decreased in the second trimester and then conspicuously increased from week 32 of pregnancy
- Clinical pregnancy rate [7]: 64.0%
- Pregnancy progress ([1]; tacrolimus 2 mg/day continuously during pregnancy, no other treatments): favorable pregnancy progress

Compound: heparin
- Outcome of earlier treatment [1]: not successful
